{
  "source": "ChEMBL document CHEMBL3734692",
  "about": "“Design and synthesis of 2-oxindole based multi-targeted inhibitors of PDK1/Akt signaling pathway for the treatment of glioblastoma multiforme” (Eur J Med Chem, 2015)",
  "key": {"[1]": {"target": "Proto-oncogene tyrosine-protein kinase Src (Homo sapiens) (UniProt P12931)", "assay": "Inhibition of SRC (unknown origin) at 1 uM by selectscreen kinase profiling assay in presence of ATP"}, "[2]": {"target": "MAP kinase-activated protein kinase 2 (Homo sapiens) (UniProt P49137)", "assay": "Inhibition of MAPKAPK2 (unknown origin) at 1 uM by selectscreen kinase profiling assay in presence of ATP"}, "ANGM-CSS": {"tested_on": "ANGM-CSS", "assay": "Induction of human GSC differentiation derived from ANGM-CSS cells assessed as up regulation of GFAP mRNA expression at 1 uM after 7 days by RT-PCR analysis", "assay_type": "functional, cell-based"}, "[3]": {"assay": "Antiproliferative activity against human U118MG cells assessed as inhibition of cell growth after 96 hrs by WST1 assay", "assay_type": "functional", "conditions": "U-118-MG"}, "[4]": {"assay": "Antiproliferative activity against human ANGM-CSS cells assessed as inhibition of cell growth after 96 hrs by WST1 assay", "assay_type": "functional"}, "[5]": {"target": "Tyrosine-protein kinase BTK (Homo sapiens) (UniProt Q06187)", "sequence (Q06187 whole entry)": "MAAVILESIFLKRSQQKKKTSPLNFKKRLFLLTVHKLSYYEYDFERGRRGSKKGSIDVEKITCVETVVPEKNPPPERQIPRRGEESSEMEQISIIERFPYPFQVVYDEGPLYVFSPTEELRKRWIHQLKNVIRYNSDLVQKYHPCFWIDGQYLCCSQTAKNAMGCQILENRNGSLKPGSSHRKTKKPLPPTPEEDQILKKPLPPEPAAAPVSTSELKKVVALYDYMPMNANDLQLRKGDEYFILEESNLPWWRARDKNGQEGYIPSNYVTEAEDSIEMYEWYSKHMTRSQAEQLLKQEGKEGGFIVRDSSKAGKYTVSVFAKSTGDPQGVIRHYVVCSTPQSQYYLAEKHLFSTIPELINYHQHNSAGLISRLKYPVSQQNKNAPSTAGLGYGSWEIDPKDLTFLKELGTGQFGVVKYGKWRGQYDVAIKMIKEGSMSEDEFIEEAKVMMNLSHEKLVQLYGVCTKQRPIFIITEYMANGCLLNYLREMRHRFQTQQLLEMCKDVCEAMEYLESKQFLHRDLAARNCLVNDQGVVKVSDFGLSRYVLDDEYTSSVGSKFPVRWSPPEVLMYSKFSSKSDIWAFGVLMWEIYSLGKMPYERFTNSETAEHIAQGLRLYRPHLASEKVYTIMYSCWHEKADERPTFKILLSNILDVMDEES", "assay": "Inhibition of BTK (unknown origin) at 1 uM by selectscreen kinase profiling assay in presence of ATP"}, "[6]": {"target": "AMP-activated protein kinase, AMPK (Homo sapiens) (UniProt P54646+O43741+P54619+Q9UGJ0+Q9Y478+Q13131+Q9UGI9)", "assay": "Inhibition of AMPK A2/B1/G1 (unknown origin) at 1 uM by selectscreen kinase profiling assay in presence of ATP", "assay_type": "protein-complex assay"}, "[7]": {"target": "RAC-alpha serine/threonine-protein kinase (Homo sapiens) (UniProt P31749)", "assay": "Inhibition of recombinant Akt1 (unknown origin) incubated for 1 hr by Z'Lyte assay"}, "[8]": {"target": "Mitogen-activated protein kinase 8 (Homo sapiens) (UniProt P45983)", "assay": "Inhibition of JNK1 (unknown origin) at 1 uM by selectscreen kinase profiling assay in presence of ATP"}, "[9]": {"assay": "Antiproliferative activity against human U118MG cells assessed as inhibition of cell growth after 120 hrs by WST1 assay", "assay_type": "functional", "conditions": "U-118-MG"}, "[10]": {"target": "Interleukin-1 receptor-associated kinase 4 (Homo sapiens) (UniProt Q9NWZ3)", "assay": "Inhibition of IRAK4 (unknown origin) at 1 uM by selectscreen kinase profiling assay in presence of ATP"}, "[11]": {"target": "Ribosomal protein S6 kinase alpha-1 (Homo sapiens) (UniProt Q15418)", "assay": "Inhibition of RSK1 (unknown origin) at 1 uM by selectscreen kinase profiling assay in presence of ATP"}, "[12]": {"target": "T1, 3-phosphoinositide-dependent protein kinase 1 (Homo sapiens, UniProt O15530)", "T1 sequence (O15530 whole entry)": "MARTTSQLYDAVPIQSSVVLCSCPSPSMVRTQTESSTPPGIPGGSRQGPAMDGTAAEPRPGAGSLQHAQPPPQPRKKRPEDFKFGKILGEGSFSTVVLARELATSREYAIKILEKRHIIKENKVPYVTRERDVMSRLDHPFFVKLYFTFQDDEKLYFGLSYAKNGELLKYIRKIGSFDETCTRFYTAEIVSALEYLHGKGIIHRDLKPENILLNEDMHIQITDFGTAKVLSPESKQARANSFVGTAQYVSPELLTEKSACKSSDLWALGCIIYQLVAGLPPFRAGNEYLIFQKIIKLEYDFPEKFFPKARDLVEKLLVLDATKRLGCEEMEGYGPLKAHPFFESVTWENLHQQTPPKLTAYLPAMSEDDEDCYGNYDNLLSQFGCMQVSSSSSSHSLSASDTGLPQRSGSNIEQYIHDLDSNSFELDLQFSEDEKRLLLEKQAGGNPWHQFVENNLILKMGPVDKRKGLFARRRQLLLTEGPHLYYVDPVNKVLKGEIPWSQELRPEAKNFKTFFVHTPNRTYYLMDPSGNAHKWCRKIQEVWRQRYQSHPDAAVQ", "assay": "Inhibition of PDK1 (unknown origin) incubated for 1 hr by Z'Lyte assay"}, "[13]": {"target": "Mitogen-activated protein kinase 9 (Homo sapiens) (UniProt P45984)", "sequence (P45984 whole entry, looked up)": "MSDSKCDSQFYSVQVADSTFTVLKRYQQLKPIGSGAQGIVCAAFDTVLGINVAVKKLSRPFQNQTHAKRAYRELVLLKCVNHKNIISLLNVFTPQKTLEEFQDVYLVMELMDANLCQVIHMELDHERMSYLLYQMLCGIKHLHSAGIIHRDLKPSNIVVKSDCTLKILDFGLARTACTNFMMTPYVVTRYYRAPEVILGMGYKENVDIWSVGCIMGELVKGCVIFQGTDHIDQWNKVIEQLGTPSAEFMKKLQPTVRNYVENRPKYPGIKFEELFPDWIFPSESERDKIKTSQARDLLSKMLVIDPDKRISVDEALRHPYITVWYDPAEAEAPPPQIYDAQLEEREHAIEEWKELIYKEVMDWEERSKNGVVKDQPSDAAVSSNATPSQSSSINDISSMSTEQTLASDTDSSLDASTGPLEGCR", "assay": "Inhibition of JNK2 (unknown origin) at 1 uM by selectscreen kinase profiling assay in presence of ATP"}, "[14]": {"assay": "Cell cycle arrest in human ANGM-CSS cells assessed as accumulation at G0/G1 phase at 1 uM after 7 days by based fluorescent reagent based cell analysis (reference value: 60.7%)", "assay_type": "functional"}, "[15]": {"target": "Glycogen synthase kinase-3 beta (Homo sapiens, UniProt P49841)", "sequence (P49841 whole entry, looked up)": "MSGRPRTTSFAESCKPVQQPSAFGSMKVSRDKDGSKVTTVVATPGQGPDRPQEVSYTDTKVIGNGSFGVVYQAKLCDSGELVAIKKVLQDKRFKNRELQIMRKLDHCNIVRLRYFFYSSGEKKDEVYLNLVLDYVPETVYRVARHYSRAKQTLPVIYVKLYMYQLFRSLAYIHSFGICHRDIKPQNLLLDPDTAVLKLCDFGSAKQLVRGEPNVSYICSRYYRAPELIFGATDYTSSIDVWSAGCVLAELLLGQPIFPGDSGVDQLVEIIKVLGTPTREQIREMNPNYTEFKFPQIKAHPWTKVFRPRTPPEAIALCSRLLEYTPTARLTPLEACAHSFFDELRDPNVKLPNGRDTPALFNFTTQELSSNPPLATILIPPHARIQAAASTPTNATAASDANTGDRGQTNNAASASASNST", "assay": "Inhibition of GSK3beta (unknown origin) at 1 uM by selectscreen kinase profiling assay in presence of ATP"}, "[16]": {"tested_on": "RAF proto-oncogene serine/threonine-protein kinase (Homo sapiens), P04049 [Y340D,Y341D]", "sequence (P04049 whole entry Y340D/Y341D)": "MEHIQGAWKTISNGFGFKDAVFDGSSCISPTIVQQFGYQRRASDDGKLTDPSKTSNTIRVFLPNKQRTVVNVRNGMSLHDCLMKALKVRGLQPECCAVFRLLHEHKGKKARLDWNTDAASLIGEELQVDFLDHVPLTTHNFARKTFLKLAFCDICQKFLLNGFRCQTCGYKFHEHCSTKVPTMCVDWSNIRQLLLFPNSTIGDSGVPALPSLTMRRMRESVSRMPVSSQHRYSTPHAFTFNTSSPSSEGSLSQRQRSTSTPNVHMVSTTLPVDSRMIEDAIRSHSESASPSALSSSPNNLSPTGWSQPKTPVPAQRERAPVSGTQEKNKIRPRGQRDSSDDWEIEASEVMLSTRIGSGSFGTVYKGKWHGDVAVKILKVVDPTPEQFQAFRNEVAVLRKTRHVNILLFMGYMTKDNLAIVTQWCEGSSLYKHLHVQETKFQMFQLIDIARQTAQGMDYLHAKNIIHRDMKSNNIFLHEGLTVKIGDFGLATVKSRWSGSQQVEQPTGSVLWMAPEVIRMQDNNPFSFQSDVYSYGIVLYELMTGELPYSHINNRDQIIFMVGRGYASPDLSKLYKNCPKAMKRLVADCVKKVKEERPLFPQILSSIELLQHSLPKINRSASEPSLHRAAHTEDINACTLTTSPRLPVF", "assay": "Inhibition of RAF1 Y340D/Y341D double mutant (unknown origin) at 1 uM by selectscreen kinase profiling assay in presence of ATP"}, "[17]": {"target": "G protein-coupled receptor kinase 5 (Homo sapiens) (UniProt P34947)", "sequence (P34947 whole entry, looked up)": "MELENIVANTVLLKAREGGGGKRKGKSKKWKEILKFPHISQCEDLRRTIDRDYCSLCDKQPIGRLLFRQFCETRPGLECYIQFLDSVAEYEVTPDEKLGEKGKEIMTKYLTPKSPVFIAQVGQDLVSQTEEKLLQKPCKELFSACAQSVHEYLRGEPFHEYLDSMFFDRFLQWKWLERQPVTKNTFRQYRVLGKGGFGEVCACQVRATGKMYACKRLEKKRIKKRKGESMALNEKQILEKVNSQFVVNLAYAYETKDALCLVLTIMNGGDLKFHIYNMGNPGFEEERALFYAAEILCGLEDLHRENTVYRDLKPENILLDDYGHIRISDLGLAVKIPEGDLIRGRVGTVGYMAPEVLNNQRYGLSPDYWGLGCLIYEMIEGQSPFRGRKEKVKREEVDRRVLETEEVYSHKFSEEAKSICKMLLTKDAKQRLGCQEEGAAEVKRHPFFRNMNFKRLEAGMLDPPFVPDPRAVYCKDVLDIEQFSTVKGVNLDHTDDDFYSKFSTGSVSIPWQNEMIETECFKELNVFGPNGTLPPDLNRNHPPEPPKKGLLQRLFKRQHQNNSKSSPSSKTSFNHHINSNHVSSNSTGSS", "assay": "Inhibition of GRK5 (unknown origin) at 1 uM by selectscreen kinase profiling assay in presence of ATP"}, "[18]": {"target": "Serine/threonine-protein kinase Chk1 (Homo sapiens) (UniProt O14757)", "sequence (O14757 whole entry)": "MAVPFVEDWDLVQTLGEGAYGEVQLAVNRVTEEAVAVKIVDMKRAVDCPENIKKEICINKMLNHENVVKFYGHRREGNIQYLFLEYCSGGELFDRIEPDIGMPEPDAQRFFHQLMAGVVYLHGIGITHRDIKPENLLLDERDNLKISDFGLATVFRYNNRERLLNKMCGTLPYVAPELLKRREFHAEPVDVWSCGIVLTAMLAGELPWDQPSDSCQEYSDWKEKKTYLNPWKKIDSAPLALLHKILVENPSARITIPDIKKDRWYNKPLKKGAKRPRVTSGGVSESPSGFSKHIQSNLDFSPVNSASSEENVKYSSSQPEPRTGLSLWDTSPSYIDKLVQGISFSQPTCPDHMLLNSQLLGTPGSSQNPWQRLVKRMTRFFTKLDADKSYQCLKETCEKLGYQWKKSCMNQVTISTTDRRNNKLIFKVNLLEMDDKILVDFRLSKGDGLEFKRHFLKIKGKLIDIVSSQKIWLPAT", "assay": "Inhibition of CHEK1 (unknown origin) at 1 uM by selectscreen kinase profiling assay in presence of ATP"}, "[19]": {"target": "Cyclin-dependent kinase 5/CDK5 activator 1 (Homo sapiens) (UniProt Q00535+Q15078)", "sequence (Q00535 whole entry)": "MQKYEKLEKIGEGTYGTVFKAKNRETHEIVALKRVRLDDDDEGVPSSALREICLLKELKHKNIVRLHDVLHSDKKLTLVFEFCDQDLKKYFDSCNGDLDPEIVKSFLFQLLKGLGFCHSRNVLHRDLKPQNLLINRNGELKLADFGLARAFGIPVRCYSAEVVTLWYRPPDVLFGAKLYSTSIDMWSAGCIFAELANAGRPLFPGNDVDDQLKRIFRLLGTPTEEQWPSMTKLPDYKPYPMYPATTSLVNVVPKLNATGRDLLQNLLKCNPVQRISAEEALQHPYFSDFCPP", "sequence (Q15078 99-307 partner limits assumed)": "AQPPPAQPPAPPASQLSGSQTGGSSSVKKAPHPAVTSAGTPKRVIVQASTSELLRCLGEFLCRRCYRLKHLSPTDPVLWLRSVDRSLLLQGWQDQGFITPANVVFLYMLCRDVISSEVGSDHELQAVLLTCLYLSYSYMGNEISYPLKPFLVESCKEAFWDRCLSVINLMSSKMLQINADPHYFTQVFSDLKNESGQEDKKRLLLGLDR", "assay": "Inhibition of CDK5/p35 (unknown origin) at 1 uM by selectscreen kinase profiling assay in presence of ATP", "assay_type": "protein-complex assay"}, "[20]": {"target": "PI3-kinase p110-alpha/p85-alpha (Homo sapiens) (UniProt P27986+P42336)", "assay": "Inhibition of PIK3CA/PIK3R1 (unknown origin) at 1 uM by selectscreen kinase profiling assay in presence of ATP", "assay_type": "protein-complex assay"}, "[21]": {"assay": "Induction of apoptosis in human ANGM-CSS cells assessed as early apoptotic cells at 1 uM after 7 days by annexin V-FITC/7-AAD dual staining based cell analysis (reference value: 2.12%)", "assay_type": "functional"}, "[22]": {"target": "Protein kinase C alpha type (Homo sapiens) (UniProt P17252)", "assay": "Inhibition of PKCalpha (unknown origin) at 1 uM by selectscreen kinase profiling assay in presence of ATP"}, "[23]": {"target": "cAMP-dependent protein kinase catalytic subunit alpha (Homo sapiens) (UniProt P17612)", "assay": "Inhibition of PRKACA (unknown origin) at 1 uM by selectscreen kinase profiling assay in presence of ATP"}, "[24]": {"target": "Phosphatidylinositol 4,5-bisphosphate 3-kinase catalytic subunit gamma isoform (Homo sapiens) (UniProt P48736)", "assay": "Inhibition of PIK3Cgamma (unknown origin) at 1 uM by selectscreen kinase profiling assay in presence of ATP"}, "[25]": {"target": "Casein kinase I isoform gamma-1 (Homo sapiens) (UniProt Q9HCP0)", "sequence (Q9HCP0 whole entry, looked up, canonical isoform)": "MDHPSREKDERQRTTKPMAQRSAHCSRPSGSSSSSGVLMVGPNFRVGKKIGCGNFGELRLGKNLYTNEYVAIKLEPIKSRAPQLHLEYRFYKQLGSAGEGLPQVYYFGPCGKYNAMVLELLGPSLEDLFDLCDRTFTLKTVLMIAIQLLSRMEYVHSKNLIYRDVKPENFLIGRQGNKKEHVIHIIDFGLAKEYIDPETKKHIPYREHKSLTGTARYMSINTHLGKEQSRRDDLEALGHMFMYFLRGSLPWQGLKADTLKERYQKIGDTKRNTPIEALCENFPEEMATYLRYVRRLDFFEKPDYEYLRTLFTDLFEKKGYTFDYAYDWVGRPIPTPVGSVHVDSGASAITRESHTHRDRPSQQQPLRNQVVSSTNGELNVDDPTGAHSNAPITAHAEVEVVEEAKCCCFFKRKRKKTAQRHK", "assay": "Inhibition of CK1gamma1 (unknown origin) at 1 uM by selectscreen kinase profiling assay in presence of ATP"}, "[26]": {"target": "RAC-gamma serine/threonine-protein kinase (Homo sapiens) (UniProt Q9Y243)", "assay": "Inhibition of AKT3 (unknown origin) at 1 uM by selectscreen kinase profiling assay in presence of ATP"}, "[27]": {"assay": "Cell cycle arrest in human GSC derived from ANGM-CSS cells assessed as accumulation at G2/M phase at 1 uM after 7 days by based fluorescent reagent based cell analysis (reference value: 23.5%)", "assay_type": "functional"}},
  "note": "pIC50: −log10 of the molar value. The source made the active and inactive calls. The calls are words filed in the database; no cut-off is given here.",
  "data": [
    {"smiles": "COc1cc2c(cc1OC)CN(CC(=O)Nc1ccc3c(c1)/C(=C/c1cnc[nH]1)C(=O)N3)CC2", "values": [
      {"measurement": "inhibition", "setting": "[1]", "result": 27, "unit": "%"},
      {"measurement": "inhibition", "setting": "[2]", "result": -2, "unit": "%"},
      {"measurement": "Activity", "setting": "ANGM-CSS", "result": "Active"},
      {"measurement": "GI50", "setting": "[3]", "result": 29.9, "unit": "µM"},
      {"measurement": "GI50", "setting": "[4]", "result": 7.5, "unit": "µM"},
      {"measurement": "inhibition", "setting": "[5]", "result": 12, "unit": "%"},
      {"measurement": "inhibition", "setting": "[6]", "result": 30, "unit": "%"},
      {"measurement": "inhibition", "setting": "[7]", "result": "inactive"},
      {"measurement": "inhibition", "setting": "[8]", "result": 5, "unit": "%"},
      {"measurement": "GI50", "setting": "[9]", "result": 16.7, "unit": "µM"},
      {"measurement": "inhibition", "setting": "[10]", "result": 5, "unit": "%"},
      {"measurement": "inhibition", "setting": "[11]", "result": 44, "unit": "%"},
      {"measurement": "pIC50", "setting": "[12]", "result": 6.01},
      {"measurement": "inhibition", "setting": "[13]", "result": 5, "unit": "%"},
      {"measurement": "Activity", "setting": "[14]", "result": 72.6, "unit": "%"},
      {"measurement": "inhibition", "setting": "[15]", "result": 70, "unit": "%"},
      {"measurement": "inhibition", "setting": "[16]", "result": 25, "unit": "%"},
      {"measurement": "inhibition", "setting": "[17]", "result": 10, "unit": "%"},
      {"measurement": "inhibition", "setting": "[18]", "result": 61, "unit": "%"},
      {"measurement": "inhibition", "setting": "[19]", "result": 40, "unit": "%"},
      {"measurement": "inhibition", "setting": "[20]", "result": -6, "unit": "%"},
      {"measurement": "Activity", "setting": "[21]", "result": 6.77, "unit": "%"},
      {"measurement": "inhibition", "setting": "[22]", "result": -2, "unit": "%"},
      {"measurement": "inhibition", "setting": "[23]", "result": 3, "unit": "%"},
      {"measurement": "inhibition", "setting": "[24]", "result": 5, "unit": "%"},
      {"measurement": "inhibition", "setting": "[25]", "result": -4, "unit": "%"},
      {"measurement": "inhibition", "setting": "[26]", "result": 8, "unit": "%"},
      {"measurement": "Activity", "setting": "[27]", "result": 27, "unit": "%"}
    ]}
  ]
}
